{"source": "patent US20230021483A1", "about": "“[…] […] METHOD AND CLASSIFICATION OF PHARMACEUTICAL COMPONENTS BY USING TRANSCRIPTOMES” (National Institutes of Biomedical Innovation, Health and …, priority 2016, published 2023)", "format_in_all_cases": "in vivo, C57BL/6 mice", "key": {"spleen (SP)": {"test_system": "spleen (SP)", "test": "Whole organ transcriptome (GeneChip microarray) of spleen 6 h after adjuvant administration: sDEGs, hierarchical clustering; further: key: G1 (interferon signaling); G2 (metabolism of lipids and lipoproteins); G3 (response to stress); G4 (response to wounding); G5 (phosphate-containing compound metabolic process); G6 (phagosome)", "conditions": "hierarchical clustering"}, "[1]": {"test_system": "inguinal lymph nodes (LN)", "test": "Whole organ transcriptome (GeneChip microarray) of draining inguinal lymph nodes 6 h after adjuvant administration: sDEGs, gene modules, hierarchical clustering; further: key: G1 (interferon signaling); G2 (metabolism of lipids and lipoproteins); G3 (response to stress); G4 (response to wounding); G5 (phosphate-containing compound metabolic process); G6 (phagosome)", "conditions": "hierarchical clustering, lymph node"}, "[2]": {"test_system": "preferentially upregulated genes in LV, SP, LN", "test": "Z-score-based differential gene expression analysis (adjuvant group- or adjuvant-associated genes, 40 module mapping, TargetMine annotation)", "conditions": "ID, LV", "text": "Each sample's FC value was converted into a z-score on a gene basis by using the entire data set for each organ. The Z-score of the triplicates of interest were summed for each adjuvant. For example, the three sample z-score in the LV sample following cdiGMP administration was summed on a gene-by-gene basis, after which the summed scores of >3 genes were selected as relatively preferentially expressed genes in the LV after cdiGMP administration. The following threshold was applied for selections. […] G2^LV: ALM_IP(z>1) & bCD(z>1) & ENDCN(z>1) & FCA(z>1). […] G4^LV: MALP2s(z>3). […] G2^SP: ENDCN_x2+ENDCN_x3(z>2) & ALM_IP(z>3) & bCD(z>3). […] G4^SP: ADX_ID_x2+ADX_ID_x3(z>2) & ADX_IP(z>3) & MALP2s(z>3). […] G2^LN: bCD(z>3) & FCA(z>3). […] G5^LN: K3(z>1.5) & K3SPG_x1+K3SPG_x2(z>1) & D35_x1+D35_x3(z>1). G6^LN: AddaVax(z>3)."}}, "data": [{"compound": "CCOCc1nc2c(N)nc3ccccc3c2n1CC(C)(C)O", "note": "[R848, 4-amino-2-(ethoxymethyl)-a,a-dimethyl-1H-imidazo[4,5-c]quinoline-1-ethanol]", "values": [{"measurement": "adjuvant group (cluster) in SP", "setting": "spleen (SP)", "value": "G1"}, {"measurement": "adjuvant group (cluster) in LN", "setting": "[1]", "value": "G1"}, {"measurement": "Adar 1425405_a_at (Group G1, Modules 20)", "setting": "[2]; sample x1", "value": 1.63}, {"measurement": "Adar 1434268_at (Group G1, Modules 20)", "setting": "[2]; sample x1", "value": 2.77}, {"measurement": "Ddx58 1436562_at (Group G1, Modules 20)", "setting": "[2]; sample x1", "value": 2.64}, {"measurement": "Ddx58 1456890_at (Group G1, Modules 20)", "setting": "[2]; sample x1", "value": 2.42}, {"measurement": "Eif2ak2 1422005_at (Group G1, Modules 20)", "setting": "[2]; sample x1", "value": 2.43}, {"measurement": "G3bp2 1421323_a_at (Group G1, Modules 20)", "setting": "[2]; sample x1", "value": 2.13}, {"measurement": "Gm9706///Isg15 1431591_s_at (Group G1, Modules 20)", "setting": "[2]; sample x1", "value": 2.55}, {"measurement": "H2-T10///H2-T22///H2-T9 1449875_s_at (Group G1, Modules 20)", "setting": "[2]; sample x1", "value": 2.05}, {"measurement": "Ifih1 1426276_at (Group G1, Modules 20)", "setting": "[2]; sample x1", "value": 3.25}, {"measurement": "Ifit1 1450783_at (Group G1, Modules 20)", "setting": "[2]; sample x1", "value": 1.54}, {"measurement": "Ifit3 1449025_at (Group G1, Modules 20)", "setting": "[2]; sample x1", "value": 2.19}, {"measurement": "Irf7 1417244_a_at (Group G1, Modules 20)", "setting": "[2]; sample x1", "value": 2.27}, {"measurement": "Irgm1 1418825_at (Group G1, Modules 20)", "setting": "[2]; sample x1", "value": 2.87}, {"measurement": "Mndal 1426906_at (Group G1, Modules 20)", "setting": "[2]; sample x1", "value": 1.65}, {"measurement": "Pml 1448757_at (Group G1, Modules 20)", "setting": "[2]; sample x1", "value": 1.77}, {"measurement": "Pml 1456103_at (Group G1, Modules 20)", "setting": "[2]; sample x1", "value": 3.66}, {"measurement": "Rnf213 1455500_at (Group G1, Modules 20)", "setting": "[2]; sample x1", "value": 1.29}, {"measurement": "Rsad2 1436058_at (Group G1, Modules 20)", "setting": "[2]; sample x1", "value": 1.97}, {"measurement": "Shisa5 1423986_a_at (Group G1, Modules 20)", "setting": "[2]; sample x1", "value": 2.93}, {"measurement": "Shisa5 1437503_a_at (Group G1, Modules 20)", "setting": "[2]; sample x1", "value": 3.09}, {"measurement": "Stat1 1450033_a_at (Group G1, Modules 20)", "setting": "[2]; sample x1", "value": 1.4}, {"measurement": "Stat1 1450034_at (Group G1, Modules 20)", "setting": "[2]; sample x1", "value": 2.37}, {"measurement": "Tdrd7 1426716_at (Group G1, Modules 20)", "setting": "[2]; sample x1", "value": 1.79}, {"measurement": "Tor1aip2 1418115_s_at (Group G1, Modules 20)", "setting": "[2]; sample x1", "value": 1.53}, {"measurement": "Tor1aip2 1418116_at (Group G1, Modules 20)", "setting": "[2]; sample x1", "value": 1.45}, {"measurement": "Tor1aip2 1435526_at (Group G1, Modules 20)", "setting": "[2]; sample x1", "value": 3.12}, {"measurement": "Trim12a 1437432_a_at (Group G1, Modules 20)", "setting": "[2]; sample x1", "value": 2.13}, {"measurement": "Uba7 1426970_a_at (Group G1, Modules 20)", "setting": "[2]; sample x1", "value": 2.64}, {"measurement": "Adar 1425405_a_at (Group G1, Modules 20)", "setting": "[2]; sample x2", "value": 1.17}, {"measurement": "Adar 1434268_at (Group G1, Modules 20)", "setting": "[2]; sample x2", "value": 1.8}, {"measurement": "Ddx58 1436562_at (Group G1, Modules 20)", "setting": "[2]; sample x2", "value": 2.33}, {"measurement": "Ddx58 1456890_at (Group G1, Modules 20)", "setting": "[2]; sample x2", "value": 1.34}, {"measurement": "Eif2ak2 1422005_at (Group G1, Modules 20)", "setting": "[2]; sample x2", "value": 1.56}, {"measurement": "G3bp2 1421323_a_at (Group G1, Modules 20)", "setting": "[2]; sample x2", "value": 1.21}, {"measurement": "Gm9706///Isg15 1431591_s_at (Group G1, Modules 20)", "setting": "[2]; sample x2", "value": 2.1}, {"measurement": "H2-T10///H2-T22///H2-T9 1449875_s_at (Group G1, Modules 20)", "setting": "[2]; sample x2", "value": 2.01}, {"measurement": "Ifih1 1426276_at (Group G1, Modules 20)", "setting": "[2]; sample x2", "value": 2.46}, {"measurement": "Ifit1 1450783_at (Group G1, Modules 20)", "setting": "[2]; sample x2", "value": 1.14}, {"measurement": "Ifit3 1449025_at (Group G1, Modules 20)", "setting": "[2]; sample x2", "value": 1.76}, {"measurement": "Irf7 1417244_a_at (Group G1, Modules 20)", "setting": "[2]; sample x2", "value": 2.39}, {"measurement": "Irgm1 1418825_at (Group G1, Modules 20)", "setting": "[2]; sample x2", "value": 2.12}, {"measurement": "Mndal 1426906_at (Group G1, Modules 20)", "setting": "[2]; sample x2", "value": 1.42}, {"measurement": "Pml 1448757_at (Group G1, Modules 20)", "setting": "[2]; sample x2", "value": 1.53}, {"measurement": "Pml 1456103_at (Group G1, Modules 20)", "setting": "[2]; sample x2", "value": 1.62}, {"measurement": "Rnf213 1455500_at (Group G1, Modules 20)", "setting": "[2]; sample x2", "value": 1.03}, {"measurement": "Rsad2 1436058_at (Group G1, Modules 20)", "setting": "[2]; sample x2", "value": 1.77}, {"measurement": "Shisa5 1423986_a_at (Group G1, Modules 20)", "setting": "[2]; sample x2", "value": 2.32}, {"measurement": "Shisa5 1437503_a_at (Group G1, Modules 20)", "setting": "[2]; sample x2", "value": 2.43}, {"measurement": "Stat1 1450033_a_at (Group G1, Modules 20)", "setting": "[2]; sample x2", "value": 1.2}, {"measurement": "Stat1 1450034_at (Group G1, Modules 20)", "setting": "[2]; sample x2", "value": 1.92}, {"measurement": "Tdrd7 1426716_at (Group G1, Modules 20)", "setting": "[2]; sample x2", "value": 1.21}, {"measurement": "Tor1aip2 1418115_s_at (Group G1, Modules 20)", "setting": "[2]; sample x2", "value": 1.08}, {"measurement": "Tor1aip2 1418116_at (Group G1, Modules 20)", "setting": "[2]; sample x2", "value": 1.22}, {"measurement": "Tor1aip2 1435526_at (Group G1, Modules 20)", "setting": "[2]; sample x2", "value": 2.18}, {"measurement": "Trim12a 1437432_a_at (Group G1, Modules 20)", "setting": "[2]; sample x2", "value": 1.94}, {"measurement": "Uba7 1426970_a_at (Group G1, Modules 20)", "setting": "[2]; sample x2", "value": 2.42}, {"measurement": "Adar 1425405_a_at (Group G1, Modules 20)", "setting": "[2]; sample x3", "value": 0.96}, {"measurement": "Adar 1434268_at (Group G1, Modules 20)", "setting": "[2]; sample x3", "value": 1}, {"measurement": "Ddx58 1436562_at (Group G1, Modules 20)", "setting": "[2]; sample x3", "value": 1.6}, {"measurement": "Ddx58 1456890_at (Group G1, Modules 20)", "setting": "[2]; sample x3", "value": 0.95}, {"measurement": "Eif2ak2 1422005_at (Group G1, Modules 20)", "setting": "[2]; sample x3", "value": 1.09}, {"measurement": "G3bp2 1421323_a_at (Group G1, Modules 20)", "setting": "[2]; sample x3", "value": 1.04}, {"measurement": "Gm9706///Isg15 1431591_s_at (Group G1, Modules 20)", "setting": "[2]; sample x3", "value": 1.95}, {"measurement": "H2-T10///H2-T22///H2-T9 1449875_s_at (Group G1, Modules 20)", "setting": "[2]; sample x3", "value": 1.77}, {"measurement": "Ifih1 1426276_at (Group G1, Modules 20)", "setting": "[2]; sample x3", "value": 2.36}, {"measurement": "Ifit1 1450783_at (Group G1, Modules 20)", "setting": "[2]; sample x3", "value": 0.63}, {"measurement": "Ifit3 1449025_at (Group G1, Modules 20)", "setting": "[2]; sample x3", "value": 1.49}, {"measurement": "Irf7 1417244_a_at (Group G1, Modules 20)", "setting": "[2]; sample x3", "value": 2.37}, {"measurement": "Irgm1 1418825_at (Group G1, Modules 20)", "setting": "[2]; sample x3", "value": 2.02}, {"measurement": "Mndal 1426906_at (Group G1, Modules 20)", "setting": "[2]; sample x3", "value": 1.21}, {"measurement": "Pml 1448757_at (Group G1, Modules 20)", "setting": "[2]; sample x3", "value": 0.66}, {"measurement": "Pml 1456103_at (Group G1, Modules 20)", "setting": "[2]; sample x3", "value": 1.29}, {"measurement": "Rnf213 1455500_at (Group G1, Modules 20)", "setting": "[2]; sample x3", "value": 0.72}, {"measurement": "Rsad2 1436058_at (Group G1, Modules 20)", "setting": "[2]; sample x3", "value": 0.67}, {"measurement": "Shisa5 1423986_a_at (Group G1, Modules 20)", "setting": "[2]; sample x3", "value": 2.23}, {"measurement": "Shisa5 1437503_a_at (Group G1, Modules 20)", "setting": "[2]; sample x3", "value": 2.49}, {"measurement": "Stat1 1450033_a_at (Group G1, Modules 20)", "setting": "[2]; sample x3", "value": 1.05}, {"measurement": "Stat1 1450034_at (Group G1, Modules 20)", "setting": "[2]; sample x3", "value": 1.52}, {"measurement": "Tdrd7 1426716_at (Group G1, Modules 20)", "setting": "[2]; sample x3", "value": 0.94}, {"measurement": "Tor1aip2 1418115_s_at (Group G1, Modules 20)", "setting": "[2]; sample x3", "value": 0.54}, {"measurement": "Tor1aip2 1418116_at (Group G1, Modules 20)", "setting": "[2]; sample x3", "value": 0.89}, {"measurement": "Tor1aip2 1435526_at (Group G1, Modules 20)", "setting": "[2]; sample x3", "value": 1.22}, {"measurement": "Trim12a 1437432_a_at (Group G1, Modules 20)", "setting": "[2]; sample x3", "value": 1.68}, {"measurement": "Uba7 1426970_a_at (Group G1, Modules 20)", "setting": "[2]; sample x3", "value": 2.27}]}]}
